Results reported in PMC11249637, “Interaction of the Atypical Tetracyclines Chelocardin and Amidochelocardin with Renal Drug Transporters” (ACS Pharmacology & Translational Science, 2024).

Target: T1, hOAT4 (Homo sapiens, UniProt Q9NSA0)
T1 construct: expressed in transfected cells; host or cells: HEK293
T1 sequence (Q9NSA0 1-550): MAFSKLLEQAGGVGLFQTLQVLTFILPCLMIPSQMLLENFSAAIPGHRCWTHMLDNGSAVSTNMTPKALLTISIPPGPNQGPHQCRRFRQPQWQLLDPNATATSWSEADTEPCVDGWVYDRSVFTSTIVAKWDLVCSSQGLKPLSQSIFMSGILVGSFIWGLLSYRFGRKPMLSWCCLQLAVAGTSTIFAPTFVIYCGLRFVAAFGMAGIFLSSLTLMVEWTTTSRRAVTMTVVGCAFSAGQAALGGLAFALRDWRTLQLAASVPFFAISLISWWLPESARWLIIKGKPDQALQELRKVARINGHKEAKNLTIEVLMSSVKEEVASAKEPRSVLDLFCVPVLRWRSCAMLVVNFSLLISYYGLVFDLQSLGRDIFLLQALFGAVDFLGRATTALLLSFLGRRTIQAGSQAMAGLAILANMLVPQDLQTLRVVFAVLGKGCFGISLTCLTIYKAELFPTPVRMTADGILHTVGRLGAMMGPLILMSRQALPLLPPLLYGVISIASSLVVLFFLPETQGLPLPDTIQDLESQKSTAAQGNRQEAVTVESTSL
Experiment: Two-point inhibition of hOAT4-mediated ES uptake in transfected HEK293 cells
Format: in vitro ADME
Conditions: ES 1 μM, 1 min; for inhibitory effect on hOAT4 (in words): 1 and 10 μM; for enhanced uptake of substrate by hOAT4: at 10 μM
Protocol: Well-characterized mOct1-, mOct2-, mOat1-, mOat2-, mOat3-, mMate1-, hOAT1-, hOAT3-, hOAT4-, hMRP2-, mMdr1a- and mMdr1b-transfected HEK293 cells and the respective vector-transfected control HEK293 cells were used.[42],[51],[52] All HEK293 cells (transporter-transfected and vector-transfected) were cultured in DMEM (Sigma, high glucose, 10% FBS, 1% penicillin (10,000 Units/mL)/streptomycin (10 mg/mL)) at 37°C under 5% CO2 in humidified atmosphere. The cells were routinely checked for the absence of mycoplasma infection. For the preparation of HEK293 cell monolayers, 24-well plates were pretreated with a poly-D-lysine hydrobromide solution (0.1 mg/mL). Each well was coated with 0.5 mL of poly-D-lysine solution and incubated for at least 15 min. After complete removal of the solution, the plates were dried for 30 min. Cells (vector-transfected and transporter-transfected) treated with trypsin were immediately seeded into 24-well plates and cultured for 3 days before being used for transport experiments.
For the uptake assay, the growth medium was aspirated, and each well was rinsed three times with 0.5 mL of incubation buffer (HBSS supplemented with 20 mM HEPES, pH 7.4) and incubated for 20 min at 37 °C. Afterward, buffers were removed, and 200 μL of the incubation buffer containing a radiolabeled substrate and the nonlabeled CHD and CDCHD or reference inhibitor (Table S1), respectively, was added to each well and incubated at 37 °C for designated time intervals. After incubation, uptake was terminated by aspirating the reaction mixture and washing the cells three times with 0.4 mL of ice-cold incubation buffer. Cells were solubilized with 0.6 mL of 1N NaOH overnight and transferred into scintillation vials. ^3H and ^14C contents were measured after the addition of 2.5 mL of scintillator in a liquid scintillation counter.
The cellular protein amount was determined in parallel for each cell line (vector- and transporter-transfected) from six wells in a different 24-well reference plate using the Bradford method. For the two-point inhibition assays, each, CHD and CDCHD, was added in two single concentrations of 1 and 10 μM to characterize their inhibitory potential. Incubation was terminated after 1 min. All experiments were conducted in triplicate for every transporter.
The ES incubation buffer contained ^3H-ES and nonlabeled ES in a final concentration of 1 μM. Inhibition of hOAT4-mediated ES uptake by 10 μM BSP was performed as a control experiment.
The inhibitory effect (I(%)) was calculated according to the formula: [drawing 5] […]

| SMILES | inhibitory effect on hOAT4 (in words) | enhanced uptake of substrate by hOAT4 |
| --- | --- | --- |
| Cc1ccc2c(C)c3c(c(O)c2c1O)C(=O)[C@@]1(O)C(=O)C(C(N)=O)=C(O)[C@@H](N)[C@H]1C3 [CDCHD, amidochelocardin] | No inhibitory effect | up to 40% |
| CC(=O)C1=C(O)[C@@H](N)[C@H]2Cc3c(c(O)c4c(O)c(C)ccc4c3C)C(=O)[C@@]2(O)C1=O [CHD, chelocardin] | No inhibitory effect | up to 40% |
